{"source": "paper PMC5544777", "about": "“Kinetics and thermodynamics of the protein-ligand interactions in the riboflavin kinase activity of the FAD synthetase from Corynebacterium ammoniagenes” (Scientific Reports, 2017)", "key": {"RFK module of CaFADS [1]": {"target": "T1, RFK module of CaFADS (Corynebacterium ammoniagenes, UniProt Q59263, L183M)", "T1 construct": "a truncated CaFADS variant consisting in the isolated C-terminal RFK module; made in house; host or cells: E. coli BL21(DE3)", "T1 sequence (Q59263 183-338 L183M)": "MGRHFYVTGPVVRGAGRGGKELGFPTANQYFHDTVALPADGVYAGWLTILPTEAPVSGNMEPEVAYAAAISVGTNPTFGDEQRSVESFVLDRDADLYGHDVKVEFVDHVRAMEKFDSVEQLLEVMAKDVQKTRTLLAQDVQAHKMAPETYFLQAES", "experiment": "Isothermal titration calorimetry of binary and ternary interactions", "assay_type": "binding", "experimental": "Isothermal titration calorimetry (ITC) experiments were performed to elucidate the order in which ligands bind to the enzyme, as well as the binding inhibition effects from the thermodynamic point of view. Experiments were carried out in an AutoITC200 (MicroCal) that was thermostated at 25 °C. […] Titrations with FLV ligands of mixtures that contained the enzyme prebound with the ANP ligand were also carried out, as well as ANP titrations of mixtures of the enzyme saturated with FLV ligands. In these experiments, the titration was performed by stepwise injecting the titrating ligand. Up to 19 injections of 2 μL each were added to the calorimetric sample cell and mixed at a stirring speed of 1000 r.p.m. Ligands and protein were dissolved in 20 mM PIPES, pH 7.0, either in the presence or absence of 0.8 mM MgCl2, and degassed prior to titration. The association constant (K a), the enthalpy change (ΔH) and the binding stoichiometry (N) were obtained through a nonlinear least squares regression of the data using a homemade model for one or two independent binding sites, which was implemented in Origin 7.0 (OriginLab) as previously described, [20]. The entropic contribution (-TΔS), the Gibbs free energy (ΔG) and the dissociation constant (K d) were obtained through essential thermodynamic equations.\nExperiments were performed in triplicate."}, "[2]": {"experiment": "Flavin photobleaching decay in the stopped-flow equipment", "assay_type": "physicochemical", "conditions": "for photobleaching rate: flavin fluorescence decay during stopped-flow measurements, 25 °C, 0.8 mM MgCl2, pH 7.0; for rate of slow linear fluorescence decay (photobleaching range): flavin mixed with the RFK module without ANP, stopped-flow", "from_the_text": "Due to the deterioration that flavins undergo when they are exposed to light, we also evaluated the FLV photobleaching decay during measurements."}, "RFK module of CaFADS [3]": {"target": "T1, RFK module of CaFADS", "experiment": "Steady-state RFK activity (HPLC quantification of flavins)", "assay_type": "biochemical", "conditions": "for KmRF / k cat: saturating ATP", "experimental": "In all cases, reactions were initiated by addition of the enzyme to a final concentration of ≈40 nM, which was followed by 1 min of incubation, and the reactions were stopped by boiling the samples at 100 °C for 5 min as previously described, [20]. The flavin composition of the supernatant was analyzed using an Alliance HPLC system (Waters) equipped with a 2707 autosampler and an HSST3 column (4.6 × 50 mm, […]; Waters) preceded by a precolumn (4.6 × 20 mm, […]; Waters) as previously described, [20]. […] All the experiments were carried out in triplicate.\nAdditionally, Dixon plots (1/(v 0/[e]) vs [I]) and Cornish-Bowden representations ([S]/(v 0/[e]) vs [I]) were used to reveal the type of inhibition, [43]."}, "[4]": {"conditions": "initial mixture RFK:ADP, 0.0 mM MgCl2"}, "[5]": {"conditions": "initial mixture RFK:ADP, 0.8 mM MgCl2"}, "[6]": {"conditions": "initial mixture RFK:ATP, 0.0 mM MgCl2"}, "[7]": {"conditions": "initial mixture RFK:ATP, 0.8 mM MgCl2"}, "[8]": {"conditions": "initial mixture RFK, 0.0 mM MgCl2"}, "[9]": {"conditions": "initial mixture RFK, 0.8 mM MgCl2"}, "[10]": {"conditions": "apparent, RF varied, [FMN] 1 μM"}, "[11]": {"conditions": "apparent, RF varied, [FMN] 2 μM"}, "[12]": {"conditions": "apparent, RF varied, [FMN] 3 μM"}, "[13]": {"conditions": "apparent, RF varied, [FMN] 5 μM"}}, "note": "Values joined by “and” are separate entries in the source; they are usually repeats but may differ in a detail not shown here. Equal entries are not always repeated.", "data": [{"smiles": "Cc1cc2nc3c(=O)[nH]c(=O)nc-3n(C[C@H](O)[C@H](O)[C@H](O)COP(=O)(O)O)c2cc1C", "note": "[FMN, flavin mononucleotide]", "values": [{"measurement": "interaction with the RFK module on titration with the individual ligand", "setting": "RFK module of CaFADS [1]; ITC thermograms, free RFK module, titrated at different temperatures", "value": "does not interact or interacts with undetectable ΔCp"}, {"measurement": "-TΔS", "setting": "RFK module of CaFADS [1]; [4]", "value": 10.6, "unit": "kcal/mol"}, {"measurement": "ΔG", "setting": "RFK module of CaFADS [1]; [4]", "value": -7.1, "unit": "kcal/mol"}, {"measurement": "ΔH", "setting": "RFK module of CaFADS [1]; [4]", "value": -17.7, "unit": "kcal/mol"}, {"measurement": "-TΔS", "setting": "RFK module of CaFADS [1]; [5]", "value": -1.9, "unit": "kcal/mol"}, {"measurement": "ΔG", "setting": "RFK module of CaFADS [1]; [5]", "value": -8.4, "unit": "kcal/mol"}, {"measurement": "ΔH", "setting": "RFK module of CaFADS [1]; [5]", "value": -6.4, "unit": "kcal/mol"}, {"measurement": "-TΔS", "setting": "RFK module of CaFADS [1]; [6]", "value": 15.4, "unit": "kcal/mol"}, {"measurement": "ΔG", "setting": "RFK module of CaFADS [1]; [6]", "value": -6.3, "unit": "kcal/mol"}, {"measurement": "ΔH", "setting": "RFK module of CaFADS [1]; [6]", "value": -21.7, "unit": "kcal/mol"}, {"measurement": "-TΔS", "setting": "RFK module of CaFADS [1]; [7]", "value": -0.2, "unit": "kcal/mol"}, {"measurement": "ΔG", "setting": "RFK module of CaFADS [1]; [7]", "value": -7.1, "unit": "kcal/mol"}, {"measurement": "ΔH", "setting": "RFK module of CaFADS [1]; [7]", "value": -6.9, "unit": "kcal/mol"}, {"measurement": "photobleaching rate", "setting": "[2]", "value": "0.0041 ± 0.00018", "unit": "min⁻¹"}, {"measurement": "rate of slow linear fluorescence decay (photobleaching range)", "setting": "[2]", "value": "0.0041 ± 0.00024", "unit": "min⁻¹"}, {"measurement": "type of inhibition of the RFK activity", "setting": "RFK module of CaFADS [3]; Dixon, Cornish-Bowden and Lineweaver-Burk plots", "value": "uncompetitive inhibitor"}]}, {"smiles": "Cc1cc2nc3c(=O)[nH]c(=O)nc-3n(C[C@H](O)[C@H](O)[C@H](O)CO)c2cc1C", "note": "[RF, riboflavin]", "values": [{"measurement": "Kd", "setting": "RFK module of CaFADS [1]; Kd, initial mixture RFK:ADP, 0.0 mM MgCl2", "value": 14.5, "unit": "µM"}, {"measurement": "Kd", "setting": "RFK module of CaFADS [1]; Kd, initial mixture RFK:ADP, 0.8 mM MgCl2", "value": 2.3, "unit": "µM"}, {"measurement": "Kd", "setting": "RFK module of CaFADS [1]; Kd, initial mixture RFK, 0.8 mM MgCl2, 20 mM PIPES, pH 7.0, 25 °C", "value": 15.2, "unit": "µM"}, {"measurement": "-TΔS", "setting": "RFK module of CaFADS [1]; [4]", "value": 67.7, "unit": "kcal/mol"}, {"measurement": "ΔG", "setting": "RFK module of CaFADS [1]; [4]", "value": -6.6, "unit": "kcal/mol"}, {"measurement": "ΔH", "setting": "RFK module of CaFADS [1]; [4]", "value": -74.3, "unit": "kcal/mol"}, {"measurement": "-TΔS", "setting": "RFK module of CaFADS [1]; [5]", "value": 11.5, "unit": "kcal/mol"}, {"measurement": "ΔG", "setting": "RFK module of CaFADS [1]; [5]", "value": -7.6, "unit": "kcal/mol"}, {"measurement": "ΔH", "setting": "RFK module of CaFADS [1]; [5]", "value": -19.2, "unit": "kcal/mol"}, {"measurement": "Kd", "setting": "RFK module of CaFADS [1]; [6]", "value": "does not bind"}, {"measurement": "-TΔS", "setting": "RFK module of CaFADS [1]; [8]", "value": -0.9, "unit": "kcal/mol"}, {"measurement": "ΔG", "setting": "RFK module of CaFADS [1]; [8]", "value": -6.9, "unit": "kcal/mol"}, {"measurement": "ΔH", "setting": "RFK module of CaFADS [1]; [8]", "value": -5.9, "unit": "kcal/mol"}, {"measurement": "-TΔS", "setting": "RFK module of CaFADS [1]; [9]", "value": 4.1, "unit": "kcal/mol"}, {"measurement": "ΔG", "setting": "RFK module of CaFADS [1]; [9]", "value": -6.6, "unit": "kcal/mol"}, {"measurement": "ΔH", "setting": "RFK module of CaFADS [1]; [9]", "value": -10.6, "unit": "kcal/mol"}, {"measurement": "photobleaching rate", "setting": "[2]", "value": "0.0046 ± 0.00018", "unit": "min⁻¹"}, {"measurement": "rate of slow linear fluorescence decay (photobleaching range)", "setting": "[2]", "value": "0.0045 ± 0.00012", "unit": "min⁻¹"}, {"measurement": "Ki", "setting": "RFK module of CaFADS [3]", "value": "1900 ± 200", "unit": "nM"}, {"measurement": "KmRF", "setting": "RFK module of CaFADS [3]; apparent, RF varied, [FMN] 0 μM", "value": "10 ± 2", "unit": "µM"}, {"measurement": "k cat", "setting": "RFK module of CaFADS [3]; apparent, RF varied, [FMN] 0 μM, substrate inhibition model, 25 °C, 0.8 mM MgCl2, pH 7.0", "value": "440 ± 50", "unit": "min⁻¹"}, {"measurement": "KmRF", "setting": "RFK module of CaFADS [3]; [10]", "value": "5.0 ± 1.1", "unit": "µM"}, {"measurement": "k cat", "setting": "RFK module of CaFADS [3]; [10]", "value": "280 ± 40", "unit": "min⁻¹"}, {"measurement": "KmRF", "setting": "RFK module of CaFADS [3]; [11]", "value": "7.7 ± 1.4", "unit": "µM"}, {"measurement": "k cat", "setting": "RFK module of CaFADS [3]; [11]", "value": "270 ± 50", "unit": "min⁻¹"}, {"measurement": "KmRF", "setting": "RFK module of CaFADS [3]; [12]", "value": "3.6 ± 0.9", "unit": "µM"}, {"measurement": "k cat", "setting": "RFK module of CaFADS [3]; [12]", "value": "140 ± 30", "unit": "min⁻¹"}, {"measurement": "KmRF", "setting": "RFK module of CaFADS [3]; [13]", "value": "5.5 ± 2.1", "unit": "µM"}, {"measurement": "k cat", "setting": "RFK module of CaFADS [3]; [13]", "value": "120 ± 40", "unit": "min⁻¹"}, {"measurement": "k cat", "setting": "RFK module of CaFADS [3]; global fit of Lineweaver-Burk equation, uncompetitive inhibition by FMN, RF varied", "value": "320 ± 40 min⁻¹ and 320 ± 30 min⁻¹"}, {"measurement": "KmRF", "setting": "RFK module of CaFADS [3]; global fit of Lineweaver-Burk equation, uncompetitive inhibition by FMN", "value": "6.9 ± 0.4", "unit": "µM"}]}]}
